Results taken from US20250170124A1, “METHODS OF DIAGNOSING AND TREATING NEURODEGENERATIVE DISEASES” (The General Hospital Corporation, priority 2022, published 2025).
Like-named read-outs stand apart in the source and are kept apart here.

Legend:
[1] = system: alpha-synuclein 5′-UTR IRE (SNCA 5′UTR); assay: Primary screen/retest: ASYN 5′-UTR IRE-driven luciferase expression in H4 cells; assay type: cell-based, human; conditions: 48 h
[2] = system: α-Synuclein; assay: Western blots of α-syn in iPSC derived DA neuron lysates; assay type: cell-based, human; conditions: for inhibition of α-Synuclein protein expression versus β-Syn, γ-Syn, Ferritin, APP and Prion proteins: 1 μM, normalized to β-Actin
[3] = system: α-Synuclein; assay: Decrease of α-syn in iPSC derived DA neurons; assay type: cell-based, human; design: Decrease syn(%) DA neurons: dose or concentration left out as unconfirmed; conditions: for Decrease αsyn(%) DA neurons: Table 2; for Decrease syn(%) DA neurons: Table 3
[4] = system: PGL3 5′UTR; assay: Secondary (counterscreen) luciferase assay in H4-C cells, IRE stem-loop removed; assay type: cell-based, human; conditions: versus SNCA 5′UTR
[5] = system: PrP-5′UTR (prion protein IRE); assay type: cell-based, human; conditions: versus SNCA 5′UTR
[6] = system: alpha-synuclein; assay: ELISA secondary screen for alpha-synuclein in SH-SY5Y cells; assay type: cell-based, human; design: Decrease syn(%) SHSY5Y cells: unit of the concentration uncertain; conditions: for Decrease syn(%) SHSY5Y cells: Table 3; for Decrease αsyn(%) SHSY5Y cells: Table 2
Protocol: FIG. 2 illustrates the results of ELISA experiments with compound 10 in SH-SY5Y cells. […]
FIG. 18 illustrates alpha Synuclein ELISA (Invitrogen) measurements from SHSY5 undifferentiated neurons treated with the indicated doses (triplicate wells) of compounds 2, 13, 11, 14, 15, and 16) for 48 h.
A human ASYN ELISA kit was utilized for all ELISA experiments (Invitrogen alpha-synuclein ELISA kit KHB0061) and the kit protocol was followed.
1) Plate SH-SY5Y […] cells (Corning, 3570) at 10,000 cells/well in 50 μL phenol red free media (phenol red-free DMEM with 4.5 g/L D-glucose [Lonza, 12-917F] supplemented with 10% FBS [Lonza, 14-503E], 200 μM L-glutamine [Lonza, 17-605E], 100 μM penstrep [Lonza, 17-602E] and 200 μg/mL geneticin [Invitrogen, 10131-027]).
2) Lid plates, then incubate cells for 24 hours at 37° C., 5% CO2, 95% humidity in a tissue culture incubator.
3) Pin 100 nL of each compound into the assay plates spanning a final concentration range from 100-0.006 μM.
4) Incubate plates for 48 h at 37° C., 5% CO2, 95% humidity. Following incubation, add 5 μL of Alamar blue solution per well and allow to incubate for 1 h at 37° C., 5% CO2, 95% humidity.
5) Read Alamar blue fluorescence using a Thermo Varioskan (570 nm excitation, 585 nm emission). Remove cell media and add 30 μL cell lysis solution with protease inhibitor (G Biosciences, 786-331; 10 μL/mL).
6) Place plates on a plate shaker for 1 h, before removing 20 μL lysate. Transfer cell lysates to 500 μL Eppendorf tubes and centrifuge (Eppendorf Centrifuge 5417C) for 10 min at 13,000 rpm.
7) Add 12 μL of the cell supernatant to 48 μL of standard diluent buffer (1:5). Add these samples to ELISA plate wells. Prepare ASYN standard curve wells as described in the kit manual.
8) Add 50 μL of anti-α-Synuclein (Detection Antibody) solution to each well, tapping the plate to mix. Cover the plate with a tape seal and incubate for 3 h at RT.
9) Wash wells four times with wash buffer using a multichannel pipette and add 100 μL of anti-rabbit IgG-HRP antibody solution to each well. Cover the plate and incubate for 30 min at RT. Wash wells four times with wash buffer and add 100 μL of Stabilized Chromogen to each well. Seal the plate and incubate in the dark at RT for 30 min.
10) Finally, add 100 μL of Stop Solution to each well, tapping the plate to mix, and read absorbance at 450 nm using an Envision plate reader (Perkin Elmer).

[7] = system: α-Syn; assay: Decrease of α-syn in Triple SNCA cortical neurons; conditions: concentration not given; for Decrease αsyn(%) X3 SNCA neurons: Table 2
[8] = system: SNCA IRE; assay: Spinach fluorescent assay, SNCA IRE fluorescence sensor R7
[9] = Homo sapiens, read-out: IC50/M (SNCA 5′UTR)
[10] = Homo sapiens, read-out: IC50/μM (SNCA 5′UTR)
[11] = 10 μM and 1 μM compound, 72 h, β-actin standardized, N=3
[12] = Homo sapiens, Table 3, H4 cells, luciferase, read-out: IC50/M (SNCA 5′UTR)
[13] = Homo sapiens, Table 2, H4 cells, luciferase, read-out: IC50/μM (SNCA 5′UTR)

## COC(=O)c1c(NC(=O)c2ccc([N+](=O)[O-])o2)sc2c1CCN(C(C)C)C2 [Compound 9, methyl 6-isopropyl-2-(5-nitrofuran-2-carboxamido)-4,5,6,7-tetrahydrothieno[2,3-c]pyridine-3-carboxylate]
[1]; [9]
  IC50: 0.1 µM
[1]; [10]
  IC50: 0.1 µM
[2]; 72 h
  inhibition of α-Synuclein protein expression versus β-Syn, γ-Syn, Ferritin, APP and Prion proteins: selectively inhibit
[2]; [11]
  α-syn levels (Western blot): reduced
[3]; @ 1 μM
  Decrease αsyn(%) DA neurons: 90 @ 1 μM %
[3]
  Decrease syn(%) DA neurons: 90 @ 1M %
[4]; Table 2
  Selectivity PGL3 5′UTR: 1,200-fold
[4]; Table 3
  Selectivity PGL3 5′UTR: 1,200-fold

## O=C(c1ccc(C[S+]([O-])c2ccccc2Cl)o1)N1CCN(c2ccccc2)CC1 (centres unmarked) [Compound 12, 1-(5-{[(2-Chlorophenyl)sulfinyl]methyl}-2-furoyl)-4-phenylpiperazine]
[5]; Table 3
  Selectivity PrP-5′UTR: Inc.
[6]; @ 0.1-1M
  Decrease syn(%) SHSY5Y cells: 21-42 @ 0.1-1M %
[1]; [12]
  IC50: 0.1 µM
[4]; Table 3
  Selectivity PGL3 5′UTR: 80-fold

## CN(C)c1nc(N)nc(CSc2nnnn2-c2cccc3ccccc23)n1 [Compound 10, N^2,N^2-dimethyl-6-(((1-(naphthalen-1-yl)-1H-tetrazol-5-yl)thio)methyl)-1,3,5-triazine-2,4-diamine]
[5]; Table 2
  Selectivity PrP-5′UTR: 35-fold
[5]; Table 3
  Selectivity PrP-5′UTR: 35-fold
[6]; @ 0.1 μM
  Decrease αsyn(%) SHSY5Y cells: 19-38 @ 0.1%
[6]; @ 0.1 µM
  Decrease syn(%) SHSY5Y cells: 19-38 @ 0.1M %
[7]
  Decrease αsyn(%) X3 SNCA neurons: 25%
[1]; [9]
  IC50: 1.8 to 3.5 µM
[1]; [10]
  IC50: 1.8 to 3.5 µM
[2]; 72 h
  inhibition of α-Synuclein protein expression versus β-Syn, γ-Syn, Ferritin, APP and Prion proteins: selectively inhibit
[2]; [11]
  α-syn levels (Western blot): reduced
[3]; @ 1 μM
  Decrease αsyn(%) DA neurons: 60 @ 1 μM %
[3]
  Decrease syn(%) DA neurons: 60 @ 1M %
[4]; Table 2
  Selectivity PGL3 5′UTR: 34-fold
[4]; Table 3
  Selectivity PGL3 5′UTR: 34-fold

## CCOC(=O)c1[nH]c(C)c(C(=O)c2cc(F)ccc2F)c1C [Compound 8, ethyl 4-(2,5-difluorobenzoyl)-3,5-dimethyl-1H-pyrrole-2-carboxylate]
[5]; Table 2
  Selectivity PrP-5′UTR: 58-fold
[6]; @ 0.1-1 μM
  Decrease αsyn(%) SHSY5Y cells: 20-40 @ 0.1-1%
[1]; [13]
  IC50: 0.2 µM
[4]; Table 2
  Selectivity PGL3 5′UTR: 53-fold

## COC(=O)C1CC23C=CCN4CCC5(c6ccccc6NC15C2C)C43 (centres unmarked) [Compound 3, methyl 14-methyl-4,5,11,12-tetrahydro-1H,3a^1H,6H-3a,5a-methanoindolizino[8,1-cd]carbazole-5-carboxylate]
[5]; Table 2
  Selectivity PrP-5′UTR: 17-fold
[5]; Table 3
  Selectivity PrP-5′UTR: 17-fold
[6]; @ 1-10 μM
  Decrease αsyn(%) SHSY5Y cells: 15-19 @ 1-10%
[6]; @ 1-10M
  Decrease syn(%) SHSY5Y cells: 15-19 @ 1-10M %
[7]
  Decrease αsyn(%) X3 SNCA neurons: 50%
[1]; [9]
  IC50: 0.134 µM
[1]; [10]
  IC50: 0.134 µM
[2]; 72 h
  inhibition of α-Synuclein protein expression versus β-Syn, γ-Syn, Ferritin, APP and Prion proteins: selectively inhibit
[2]; [11]
  α-syn levels (Western blot): reduced
[3]; @ 1 μM
  Decrease αsyn(%) DA neurons: 60 @ 1 μM %
[3]
  Decrease syn(%) DA neurons: 60 @ 1M %
[4]; Table 2
  Selectivity PGL3 5′UTR: 31-fold
[4]; Table 3
  Selectivity PGL3 5′UTR: 31-fold

## CN1CC[C@]2(C)c3cc(OC(=O)Nc4ccccc4)ccc3N(C)[C@H]12 [Posiphen, reference compound]
[6]; @10 μM
  Decrease αsyn(%) SHSY5Y cells: 25-50 @10%
[6]; @10 µM
  Decrease syn(%) SHSY5Y cells: 25-50 @10M ^ %
[8]
  binding to SNCA IRE (fluorescence of sensor R7): no measurable effect or quenching effect
[7]
  Decrease αsyn(%) X3 SNCA neurons: 5%
[7]; Table 3
  Decrease syn(%) X3 SNCA neuron: 5%
[1]; Table 2, H4 cells, luciferase, read-out: IC50/μM (SNCA 5′UTR)
  IC50: 10 µM
[2]
  α-syn levels (Western blot): reduced
[3]; concentration not given
  Decrease αsyn(%) DA neurons: 25%
  Decrease syn(%) DA neurons: 25%

## Cc1cc(C)cc(Nc2nc3ccc(C)cc3n3cnnc23)c1 [Compound 4, N-(3,5-dimethylphenyl)-8-methyl-[1,2,4]triazolo[4,3-a]quinoxalin-4-amine]
[5]; Table 2
  Selectivity PrP-5′UTR: 18-fold
[6]; @ 1 μM
  Decrease αsyn(%) SHSY5Y cells: 25-50 @ 1%
[1]; [13]
  IC50: 2.8 µM
[4]; Table 2
  Selectivity PGL3 5′UTR: 43-fold

## CCOC(=O)c1[nH]c(C)c(C(=O)c2cc(F)ccc2F)c1C [Compound 13, Ethyl 4-(2,5-difluorobenzoyl)-3,5-dimethyl-1H-pyrrole-2-carboxylate]
[5]; Table 3
  Selectivity PrP-5′UTR: 58-fold
[6]; @ 0.1-1M
  Decrease syn(%) SHSY5Y cells: 20-40 @ 0.1-1M %
[1]; [12]
  IC50: 0.2 µM
[4]; Table 3
  Selectivity PGL3 5′UTR: 53-fold
